Source: publication PMC7948422, “Repurposing p97 inhibitors for chemical modulation of the bacterial ClpB–DnaK bichaperone system” (The Journal of Biological Chemistry, 2020)

Legend:
[1] = target: glucose-6-phosphate dehydrogenase (G6PDH) (Leuconostoc mesenteroides, UniProt P11411); assay: Native G6PDH activity; assay type: biochemical; conditions: increasing DBeQ concentration
Description: G6PDH was chemically denatured by mixing 5 μl of the G6PDH stock solution (441 μM) with 5 μl of buffer A (10 M urea, 16% glycerol, 40-mM DTT) preheated at 47 °C. The samples of G6PDH in buffer A were incubated for 5 min at 47 °C. Subsequently, 5 μl of denatured G6PDH was mixed with 95 μl of buffer B (50-mM Tris-HCl, pH 7.4, 20-mM Mg(OAc)2, 30-mM KCl, 1-mM EDTA, 1-mM β-mercaptoethanol) preheated at 47 °C to initiate protein refolding, which, under these conditions, is inefficient and leads to misfolding and aggregation of G6PDH ([69]). G6PDH aggregate production was arrested after 1 min (for refolding by KJE) or 15 min (for refolding by KJE with ClpB) by transferring into ice for 2 min. […] The plate was inserted into Synergy H1 plate reader (BioTek, Winooski, VT) with the chamber temperature at 30 °C, and the sample absorbance at 340 nm was measured after 10 min. The amount of NADPH produced was calculated based on the NADPH molar extinction coefficient, Ɛ340 = 6220 [M^−1 ⋅ cm^−1]. […]
conditions. The ATPase activity of wt ClpB was determined at 37 and 45 °C as the function of DBeQ concentration. […]
Supplementary Figure 7. […] (A) Firefly luciferase activity was determined in the absence (DMSO) or in the presence 100 µM ClpB inhibitor candidates. […] (B) G6PDH activity was determined in the presence of an increasing concentration of DBeQ and normalized to the DMSO control. […]

DnaK = target: T1, DnaK (Escherichia coli, UniProt P0A6Y8); assay: DnaK binding to FITC-B2 peptide, fluorescence anisotropy; conditions: FITC-B2 20 nM, increasing DBeQ
T1 construct: full-length E. coli DnaK (residues 1–638); made in house; host or cells: E. coli BL21(DE3)
Description: To monitor interactions between the peptide B2 and DnaK, the DnaK stock was diluted in buffer C (50-mM Tris-HCl, pH 7.4, 20-mM MgCl2, 1-mM EDTA, 0.5-mM TCEP) to a final concentration of 1 μM. DBeQ solutions in DMSO (20 μl) were mixed with 372 μl of 1-μM DnaK. After 10 min of incubation at room temperature, the samples were supplemented with 8 μl of 1-μM FITC-B2 in buffer C (FITC-Ahx-[…]-NH2) ([51]). The FITC-B2 sample without DnaK was used as a control. After a 30-min incubation at room temperature, fluorescence anisotropy of FITC-B2 was measured with a PerkinElmer LS55 (λexc = 485 nm (slit: 15 nm), λem = 521 (slit: 20 nm)).

ClpB E279Q, E678Q = assay: ATPase activity of ClpB Walker B variants E279Q and E678Q; assay type: biochemical, Escherichia coli; conditions: with/without κ-casein
Description: To determine the ATPase activity, ClpB was diluted to 28 μg/ml (49-nM hexamer) in buffer C (50-mM Tris-HCl, pH 7.4, 20-mM MgCl2, 1-mM EDTA, 0.5-mM tris(2-carboxyethyl)phosphine [TCEP]). In some experiments, the ClpB solution was supplemented with 17.4 μg/ml (10 μM) κ-casein. The ClpB aliquots (18 μl) were mixed with 1 μl of the investigated compounds at different concentrations in 100% DMSO or with DMSO as a control. A sample without ClpB was used as a baseline control. After a 10-min preincubation at 37 or 45 °C, the ATP hydrolysis reaction was initiated by adding 1 μl of 100-mM ATP. The samples were incubated for 60 min (basal ClpB activity in the absence of κ-casein) or 15 min (in the presence of κ-casein) at 37 °C or 30 min at 45 °C in the absence of casein. For the E678Q ClpB variant, the incubation time in the presence of κ-casein was 60 min. After incubation, 15 μl of each sample was mixed with 200 μl of the ammonium molybdate/malachite green reagent ([67]) dispensed into a 96-well plate, followed by an addition of 30 μl of 34% sodium citrate ([68]). The plate was agitated inside a Synergy H1 reader (BioTek, Winooski, VT) for 15 min at room temperature, and the samples’ absorbance was measured at 630 nm. The readouts for ClpB-containing samples were corrected for absorbance of samples without ClpB, to account for nonenzymatic production of inorganic phosphate. […]

p97 = system: p97; design: method as in PMID 25685910; conditions: cited from earlier work

glucose-6-phosphate dehydrogenase (G6PDH), sequence (P11411 whole entry): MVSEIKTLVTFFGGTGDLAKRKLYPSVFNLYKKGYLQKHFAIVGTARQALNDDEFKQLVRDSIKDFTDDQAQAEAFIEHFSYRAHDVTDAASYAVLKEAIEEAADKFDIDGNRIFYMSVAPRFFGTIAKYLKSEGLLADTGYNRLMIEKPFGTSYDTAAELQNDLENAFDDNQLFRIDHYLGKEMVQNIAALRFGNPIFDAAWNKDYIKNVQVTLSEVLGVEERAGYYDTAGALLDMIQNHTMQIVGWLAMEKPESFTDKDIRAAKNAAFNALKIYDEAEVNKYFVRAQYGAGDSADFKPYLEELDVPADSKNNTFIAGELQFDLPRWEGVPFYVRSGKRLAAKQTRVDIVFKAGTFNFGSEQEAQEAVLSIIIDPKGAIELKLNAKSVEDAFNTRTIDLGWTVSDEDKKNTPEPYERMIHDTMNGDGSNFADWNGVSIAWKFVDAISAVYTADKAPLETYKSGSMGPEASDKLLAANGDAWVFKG
T1 sequence (P0A6Y8 whole entry, the tested form may be a part): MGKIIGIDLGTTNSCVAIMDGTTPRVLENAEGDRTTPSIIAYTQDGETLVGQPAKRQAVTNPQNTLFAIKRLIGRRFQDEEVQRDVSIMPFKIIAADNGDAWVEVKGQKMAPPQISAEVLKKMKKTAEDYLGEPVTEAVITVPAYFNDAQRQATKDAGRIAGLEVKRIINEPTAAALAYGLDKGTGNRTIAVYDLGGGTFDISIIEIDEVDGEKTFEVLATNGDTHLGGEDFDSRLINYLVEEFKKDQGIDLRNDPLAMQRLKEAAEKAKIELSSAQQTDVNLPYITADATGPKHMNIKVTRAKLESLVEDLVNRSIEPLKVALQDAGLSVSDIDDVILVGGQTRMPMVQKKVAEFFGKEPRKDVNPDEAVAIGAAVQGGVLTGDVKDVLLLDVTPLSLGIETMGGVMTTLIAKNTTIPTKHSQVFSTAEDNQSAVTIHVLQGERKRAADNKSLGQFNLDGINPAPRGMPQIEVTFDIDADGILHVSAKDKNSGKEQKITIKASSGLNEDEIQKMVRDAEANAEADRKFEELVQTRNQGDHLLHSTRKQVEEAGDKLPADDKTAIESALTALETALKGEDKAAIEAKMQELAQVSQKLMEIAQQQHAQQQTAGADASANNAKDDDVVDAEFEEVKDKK

c1ccc(CNc2nc(NCc3ccccc3)c3ccccc3n2)cc1 [DBeQ, N^2,N^4-dibenzylquinazoline-2,4-diamine]
effect on native G6PDH activity [1]: not affected | suppression of DnaK binding to substrate-mimicking peptide (DnaK): did not detect | effect on ATPase of the two ATP-binding domains (D1, D2) (ClpB E279Q, E678Q): only the C-terminal one (i.e., D2) showed casein-induced activation and was affected by DBeQ | IC50 (p97): ~3000 nM
